According to publication PMC6528465 (ACS infectious diseases, 2018):

Test system: Mtb K204
Assay type: cell-based, Mycobacterium tuberculosis
Conditions: no inhibitor

NC[C@H]1O[C@H](O[C@H]2[C@H](O)[C@@H](O[C@H]3O[C@H](CO)[C@@H](O)[C@H](N)[C@H]3O)[C@H](N)C[C@@H]2N)[C@H](O)[C@@H](O)[C@@H]1O [KAN, kanamycin]
K204 MICKAN: >10 µg/mL
